Experimental data from PubChem BioAssay (NCI).
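Results reflect a 48-hour exposure of cells in 96-well plates to compound at five concentrations. GI50 is the concentration that inhibits growth by half. Definition used: TGI = concentration required for complete inhibition of growth.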

Assays:
Test in all cases: NCI tumour cell line growth inhibition, 48 h
[1] = tested on: MOLT-4 leukemia
[2] = tested on: SF-539 CNS
[3] = tested on: SK-MEL-2 melanoma
[4] = tested on: LOX IMVI melanoma
[5] = tested on: IGROV1 ovarian
[6] = tested on: OVCAR-3 ovarian
[7] = tested on: SW-620 colon
[8] = tested on: UACC-257 melanoma
[9] = tested on: SNB-19 CNS
[10] = tested on: NCI/ADR-RES ovarian
[11] = tested on: SR leukemia
[12] = tested on: NCI-H226 lung
[13] = tested on: SN12C renal
[14] = tested on: MALME-3M melanoma
[15] = tested on: ACHN renal
[16] = tested on: TK-10 renal
[17] = tested on: UACC-62 melanoma
[18] = tested on: U251 CNS
[19] = tested on: HCT-116 colon
[20] = tested on: UO-31 renal
[21] = tested on: HCT-15 colon
[22] = tested on: K-562 leukemia
[23] = tested on: SK-MEL-28 melanoma
[24] = tested on: OVCAR-8 ovarian
[25] = tested on: SNB-75 CNS
[26] = tested on: HT29 colon
[27] = tested on: T-47D breast
[28] = tested on: EKVX NSCLC
[29] = tested on: MDA-MB-435
[30] = tested on: OVCAR-5 ovarian
[31] = tested on: MDA-MB-231 breast
[32] = tested on: DU-145 prostate
[33] = tested on: RXF 393 renal
[34] = tested on: SF-295 CNS
[35] = tested on: SK-MEL-5 melanoma
[36] = tested on: KM12 colon
[37] = tested on: A549 NSCLC
[38] = tested on: PC-3 prostate
[39] = tested on: CCRF-CEM leukemia
[40] = tested on: SK-OV-3 ovarian
[41] = tested on: HCC-2998 colon
[42] = tested on: HL-60(TB) leukemia
[43] = tested on: NCI-H460 lung
[44] = tested on: HS 578T breast
[45] = tested on: NCI-H522 lung
[46] = tested on: M14 melanoma
[47] = tested on: CAKI-1 renal
[48] = tested on: 786-0 renal
[49] = tested on: NCI-H23 lung
[50] = tested on: COLO 205 colon
[51] = tested on: OVCAR-4 ovarian
[52] = tested on: A498 renal
[53] = tested on: BT-549 breast
[54] = tested on: HOP-62 NSCLC
[55] = tested on: MCF7 breast
[56] = tested on: SF-268 CNS

CCC(C)Nc1ccc(N)cc1 (configuration not stated)
GI50 [1]: 4.29 µM | TGI [1]: 12.4 µM | GI50 [2]: 5.16 µM | TGI [2]: 17.1 µM | GI50 [3]: 3.21 µM | TGI [3]: 8.61 µM | GI50 [4]: 3.43 µM | TGI [4]: 11 µM | GI50 [5]: 4.79 µM | TGI [5]: 20.5 µM | GI50 [6]: 2.28 µM | TGI [6]: 5.54 µM | GI50 [7]: 4.16 µM | TGI [7]: 15.5 µM | GI50 [8]: 5.33 µM | TGI [8]: 16.9 µM | GI50 [9]: 8.42 µM | TGI [9]: 52.5 µM | GI50 [10]: 10.6 µM | TGI [10]: 28 µM | GI50 [11]: 2.1 µM | TGI [11]: 5.4 µM | GI50 [12]: 4.39 µM | TGI [12]: 19 µM | GI50 [13]: 2.95 µM | TGI [13]: 12.9 µM | GI50 [14]: 2.65 µM | TGI [14]: 8.08 µM | GI50 [15]: 3.73 µM | TGI [15]: 13.3 µM | GI50 [16]: 5.72 µM | TGI [16]: 25.3 µM | GI50 [17]: 2.91 µM | TGI [17]: 12.5 µM | GI50 [18]: 3.64 µM | TGI [18]: 13 µM | GI50 [19]: 2.73 µM | TGI [19]: 8.73 µM | GI50 [20]: 3.3 µM | TGI [20]: 14 µM | GI50 [21]: 3.84 µM | TGI [21]: 15.6 µM | GI50 [22]: 2.36 µM | TGI [22]: 10.4 µM | GI50 [23]: 6.37 µM | TGI [23]: 18.9 µM | GI50 [24]: 4.19 µM | TGI [24]: 22.2 µM | GI50 [25]: 4.25 µM | TGI [25]: 20.3 µM | GI50 [26]: 3.16 µM | TGI [26]: 10.7 µM | GI50 [27]: 3.63 µM | TGI [27]: 14.1 µM | GI50 [28]: 3.47 µM | TGI [28]: 14.8 µM | GI50 [29]: 4.11 µM | TGI [29]: 15.3 µM | GI50 [30]: 13.8 µM | TGI [30]: 39.8 µM | GI50 [31]: 2.91 µM | TGI [31]: 12.8 µM | GI50 [32]: 5.75 µM | TGI [32]: 19.7 µM | GI50 [33]: 4.62 µM | TGI [33]: 15.8 µM | GI50 [34]: 4.91 µM | TGI [34]: 20.1 µM | GI50 [35]: 2.86 µM | TGI [35]: 9.05 µM | GI50 [36]: 4.09 µM | TGI [36]: 13.5 µM | GI50 [37]: 4.7 µM | TGI [37]: 48.5 µM | GI50 [38]: 2.56 µM | TGI [38]: 11.2 µM | GI50 [39]: 3.33 µM | TGI [39]: 17.9 µM | GI50 [40]: 4.98 µM | TGI [40]: 93.3 µM | GI50 [41]: 4.39 µM | TGI [41]: 16.1 µM | GI50 [42]: 1.48 µM | TGI [42]: 5.05 µM | GI50 [43]: 3.85 µM | TGI [43]: 13.9 µM | GI50 [44]: 4.35 µM | TGI [44]: 24.4 µM | GI50 [45]: 3.07 µM | TGI [45]: 9.07 µM | GI50 [46]: 4.72 µM | TGI [46]: 15.5 µM | GI50 [47]: 16.7 µM | TGI [47]: > 100 µM | GI50 [48]: 3.89 µM | TGI [48]: 14.3 µM | GI50 [49]: 2.89 µM | TGI [49]: 8.89 µM | GI50 [50]: 1.72 µM | TGI [50]: 3.19 µM | GI50 [51]: 3.18 µM | TGI [51]: 38.6 µM | GI50 [52]: 7.9 µM | TGI [52]: 23.4 µM | GI50 [53]: 6.26 µM | TGI [53]: 20.9 µM | GI50 [54]: 4.14 µM | TGI [54]: 14.9 µM | GI50 [55]: 3.41 µM | TGI [55]: 12.4 µM | GI50 [56]: 5.61 µM | TGI [56]: 19.2 µM
